Patent US20080280860A1, “Use of Vitamin D Compounds to Treat Endometriosis” (BioXell S.p.A., priority 2005, published 2008)

Columns and labels:
[1] = Maximum tolerated dose; assay type: in vivo, Balb/c mice
[2] = tested on: endometriotic lesions; assay: In vivo model of endometriosis (lesion weight); parameters: species or system Balb/c mice
Experimental: Balb/c donor mice were injected with estrogen (Estradiol AMSA; 3 ug/mouse) and one week later were sacrificed and the uterus was removed, the two horns isolated and reduced to small fragments. The fragments derived from the isolated uterine horns were resuspended in saline with ampicillin (1 mg/ml) and then injected into the peritoneum of two recipient Balb/c mice, previously anesthesized, through a 0.5 cm incision in the abdominal wall. […] Antibiotic (ampicillin 1 mg/ml) was administered on the day of the surgery and on the day after. […] […] Lesions can be identified as translucid isolated or grouped cysts mainly found on the abdominal wall, on the pancreas, and around the uterus. In some cases the lesions are necrotic. The lesions were carefully removed and put on a glass slide to dry for 48 hours, and then were weighed. In other experiments lesions are transferred to a lysis solution and mRNA isolated for gene expression analysis. For immunohistochemical analysis, lesions were frozen immediately after isolation.
Balb/c donor mice were injected with estrogen (Estradiol AMSA; 3 ug/mouse) and one week later were sacrificed and the uterus was removed, the two horns isolated and reduced to small fragments. The fragments derived from the isolated uterine horns were resuspended in saline with ampicillin (1 mg/ml) and then injected into the peritoneum of two recipient Balb/c mice, previously anesthetised, through a 0.5 cm incision in the abdominal wall. Antibiotic (ampicillin 1 mg/ml) was administered on the day of the surgery and on the day after. […] Dosage levels of the test compounds were at the maximum tolerated levels for the compound in question, i.e. 1-alpha-fluoro-25-hydroxy-16,23E-diene-26,27-bishomo-20-epi-cholecalciferol (Compound A) 100 ug/kg, calcitriol (Compound B) 0.3 ug/kg and 1,25-dihydroxy-21-(3-hydroxy-3-methylbutyl)-19-nor-cholecalciferol (Compound C) 3 ug/kg.
[…] Lesions can be identified as translucid isolated or grouped cysts mainly found on the abdominal wall, on the pancreas, and around the uterus. In some cases the lesions are necrotic. The lesions were carefully removed and put on a glass slide to dry for 48 hours, and then were weighed.
Balb/c donor mice were injected with estrogen (Estradiol AMSA; 3 ug/mouse) and one week later were sacrificed and the uterus was removed, the two horns isolated and reduced to small fragments. The fragments derived from the isolated uterine horns were resuspended in saline with ampicillin (1 mg/ml) and then injected into the peritoneum of recipient Balb/c mice, previously anesthetised, through a 0.5 cm incision in the abdominal wall. Antibiotic (ampicillin 1 mg/ml) was administered on the day of the surgery and on the day after. […]
[…] Lesions can be identified as translucid isolated or grouped cysts mainly found on the abdominal wall, on the pancreas, and around the uterus. In some cases the lesions are necrotic. The lesions were carefully removed and put on a glass slide to dry for 48 hours, and then were weighed. At least 10 test animals were used in each group.
Further experiments were performed using Compound A at 100 ug/kg but varying the time at which administration of the vitamin D compound was initiated and the time point at which administration was ceased. Specifically: (i) administration for 1 week prior to injection of the uterine fragments (ii) administration for 2 weeks subsequent to injection of the uterine fragments (iii) administration for 1 week prior and 2 weeks subsequent to injection of the uterine fragments (iv) administration for 2 weeks, initiated two days subsequent to injection of the uterine fragments (v) administration for 2 weeks, initiated two weeks subsequent to injection of the uterine fragments. In these experiments, subjects were sacrificed at the later of two weeks post injection or the end of the treatment period as appropriate.

[3] = tested on: endometriotic cells; assay: Cell adhesion of endometrial stromal cells from treated animals; assay type: in vivo; conditions: animals treated 100 ug/kg orally once a day for two days; 5 subjects per group; FIG. 9
Experimental: Paired animals were treated wth Compound A (100 ug/kg) orally once a day, for two days. The animals were then sacrificed and uterus horns were removed. Myometrium was removed by scraping with a scalpel blade and remaining endometrial tissue was reduced to small fragments with scissors.
Tissue was minced into small pieces (1 to 2 mm^3) and incubated at 37° C. for 1 h with 0.1% type A collagenase. At the end of the incubation, single stromal cells were separated from large dumps of epithelium by a 10 min. period of differential sedimentation at unity gravity. The top 8 ml of medium, containing predominantly stromal cells, were then slowly removed and the cells were collected by centrifugation. […]
Polystyrene 96-well plates (Costar) were coated with 50 ul/well of 8 mg/ml extracellular matrix (ECM) (Sigma, USA), and left uncovered in a laminar flow hood overnight to allow evaporation. […] The sample fluorescence in each well was measured using a fluorescence microplate reader with filters appropriate for 480 nm excitation and 520 nm emission maxima. Results were expressed as the percentage of total cells assuming that the adhesion of cells in the control was 100%. The percentage of adhesion was determined using the formula: (Abs after being rinsed with PBS/Abs no rinse)×100%. […]

[4] = Example 3 dose/response, ip once a day, 5 days a week for two weeks, FIG. 7

## C=C1/C(=C\C=C2/CCC[C@]3(C)C([C@@H](C)C/C=C/C(O)(CC)CC)=CC[C@@H]23)C[C@@H](O)C[C@@H]1F [Compound A, 1-alpha-fluoro-25-hydroxy-16,23E-diene-26,27-bishomo-20-epi-cholecalciferol]
[1]; Balb/c, mouse, in vivo, mice, ip, above it the compound becomes hypercalcemic
  MTD: 0.1 mg/kg
[1]; Example 2
  associated toxicity compared with the other compounds tested: lower associated toxicity
[2]; 100 ug/kg, 2 weeks, initiated 2 weeks after uterus transfer, FIG. 8
  reduction in lesion weight, group (v): 34%
[2]; 100 ug/kg, 2 weeks, initiated 2 days after uterus transfer, FIG. 8
  reduction in lesion weight, group (iv): 35%
[2]; 100 ug/kg, administration for 1 week prior to injection of the uterine fragments, FIG. 8
  reduction in lesion weight, group (i): 40%
[2]; 100 ug/kg, one week before and two weeks after uterus transfer, FIG. 8
  reduction in lesion weight, group (iii): 73%
[2]; 100 ug/kg, two weeks starting at the time of uterus transfer, FIG. 8
  reduction in lesion weight, group (ii): 48%
[2]; Example 1, 100 ug/kg ip once a day, 5 days a week for two weeks, 17 pairs of mice, p=0.0034 paired, p=0.020 unpaired t test
  lesion weight, treated versus control (vehicle only): significant reduction in lesion weight
[2]; Example 2, 100 ug/kg ip once a day, 5 days a week for two weeks after uterus transfer, 24 mice per group
  lesion weight reduction between paired animals (mean ± standard error): 51±11%
[2]; Example 2, 100 ug/kg ip, two weeks, miglyol control 8.452±1.039 mg
  mean lesion weight: 3.527 ± 0.5400 mg
[2]; Example 2, each compound at its maximum tolerated level
  reduction in lesion weight compared with the other compounds tested: most pronounced
[2]; Example 2, each compound at its maximum tolerated level, ip once a day, 5 days a week for two weeks
  lesion weight, treated versus control (vehicle only), statistical analysis: significant reduction in lesion weight
[2]; [4]
  reduction in lesion weight at 1/10 MTD: approximately 20%
  reduction in lesion weight at around ⅓ MTD: approximately 35%
[3]
  adhesion of endometriotic cells: dramatically reduce the adhesion
